In PubChem BioAssay AID1512 (Sanford-Burnham Center for Chemical Genomics, 2009):

What follows are compounds tested against placental alkaline phosphatase (ALPP), human (assay: PLAP enzyme inhibitors, confirmation, biochemical, luminescence (AID 1512)). Settings: purified PLAP enzyme, luminescent substrate read-out.

SMILES	IC50 [µM]
Cc1cc2ncn(CC(=O)c3ccc(O)c(O)c3)c2cc1C	5.83
O=C(Cn1ccnc1-c1ccccc1)c1ccc(O)c(O)c1	17.2
Cc1cn(CC(=O)c2ccc(O)c(O)c2)cn1	5.81
Cc1nc(Br)cn1CC(=O)c1ccc(O)c(O)c1	4.96
CC(C)NCC(=O)c1ccc(O)c(O)c1	39.3
O=C(CNc1nc2ccccc2[nH]1)c1ccc(O)c(O)c1	9.11
Cc1cc(C)nc(NCc2ccc(O)c(O)c2)n1	51.2
